According to patent publication US8859580B2 (Boehringer Ingelheim International GmbH, priority 2007, dated 2014):

The molecules below were run against T1, 11β-HSD1 (Homo sapiens, UniProt P28845) (assay: In vitro inhibition of 11β-HSD1, HTRF detection of cortisol generated from cortisone by human liver microsomes). Conditions: 11β-HSD IC50 (nM), 1 hour at 37° C., pH 6.0, NADPH 200 μM, cortisone 80 nM, inhibition relative to carbenoxolone signal.
T1 construct: detecting cortisol generated from cortisterone by human liver microsomes; from tissue; host or cells: human liver microsomes
T1 sequence (P28845 whole entry): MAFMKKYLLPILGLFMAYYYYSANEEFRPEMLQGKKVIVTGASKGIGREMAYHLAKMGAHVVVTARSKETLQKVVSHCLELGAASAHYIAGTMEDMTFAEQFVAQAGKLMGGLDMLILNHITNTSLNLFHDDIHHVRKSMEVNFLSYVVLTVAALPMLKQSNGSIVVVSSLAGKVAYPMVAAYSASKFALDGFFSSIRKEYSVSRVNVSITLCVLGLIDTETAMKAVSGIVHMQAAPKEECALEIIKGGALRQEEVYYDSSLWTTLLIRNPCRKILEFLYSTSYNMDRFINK
Assay type: biochemical
How it was run: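 Inhibition expressed against the carbenoxolone signal and fitted to IC50 curves. Readout: HTRF competition between microsomal cortisol and XL665-labelled cortisol for Eu-cryptate anti-cortisol antibody (typically 2 h), with emission ratio 665/615 calibrated to cortisol concentration.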
Molecule `Cc1nc2cc3c(cc2n1C)[C@]1(C)CCN(C(=O)c2ccc4nc[nH]c4c2)[C@H](C3)C1(C)C` [Example 242, (3H-Benzoimidazol-5-yl)-[(6R,10S)-5,6,7,8,9,10-hexahydro-1,2,10,12,12-pentamethyl-6,10-methano-imidazo[5,4-i][3]benzazocin-7-yl]-methanone] has an IC50 of 547 nM. With `Cc1nc2cc3c(cc2n1C)C[C@H]1N(C(=O)c2ccc4nc[nH]c4c2)CC[C@]3(C)C1(C)C` [Example 243, (3H-Benzoimidazol-5-yl)-[(6R,10S)-5,6,7,8,9,10-hexahydro-2,3,10,12,12-pentamethyl-6,10-methano-imidazo[4,5-i][3]benzazocin-7-yl]-methanone] the IC50 was 113 nM. With `C[C@@H]1[C@@H]2Cc3ccc(O)cc3[C@@]1(C)CCN2C(=O)c1ccc2nc[nH]c2c1` [Example 246, (3H-Benzoimidazol-5-yl)-[(2S,6S,11S)-8-hydroxy-6,11-dimethyl-1,2,5,6-tetrahydro-4H-2,6-methano-benzo[d]azocin-3-yl)-methanone] the IC50 was 637 nM. `C[C@H]1[C@H]2Cc3ccc(O)cc3[C@]1(C)CCN2C(=O)c1ccc2nc[nH]c2c1` [Example 247, (3H-Benzoimidazol-5-yl)-[(2R,6R,11R)-8-hydroxy-6,11-dimethyl-1,2,5,6-tetrahydro-4H-2,6-methano-benzo[d]azocin-3-yl)-methanone] showed an IC50 of 190 nM. Molecule `Cc1ccc2[nH]cc(C(=O)N3CC[C@@]4(C)c5cccc(O)c5C[C@@H]3C4(C)C)c2c1` [Example 248, [(2R,6S)-10-Hydroxy-6,11,11-trimethyl-1,2,5,6-tetrahydro-4H-2,6-methano-benzo[d]azocin-3-yl)-(5-methyl-1H-indol-3-yl)-methanone] has an IC50 of 1510 nM. `C[C@@H]1[C@H]2Cc3ccc(-c4ccccc4)cc3[C@]1(C)CCN2C(=O)c1ccc2nc[nH]c2c1` [Example 249, (3H-Benzoimidazol-5-yl)-[(2R,6R,11S)-6,11-dimethyl-8-phenyl-1,2,5,6-tetrahydro-4H-2,6-methano-benzo[d]azocin-3-yl)-methanone] was tested, and the IC50 was 265 nM. For `C[C@@H]1[C@H]2Cc3ccc(-c4cccnc4)cc3[C@]1(C)CCN2C(=O)c1ccc2nc[nH]c2c1` [Example 250, (3H-Benzoimidazol-5-yl)-[(2R,6R,11S)-6,11-dimethyl-8-pyridin-3-yl-1,2,5,6-tetrahydro-4H-2,6-methano-benzo[d]azocin-3-yl]-methanone], the IC50 was 53 nM. `C[C@@H]1[C@H]2Cc3ccc(-c4ccncc4)cc3[C@]1(C)CCN2C(=O)c1ccc2nc[nH]c2c1` [Example 251, (3H-Benzoimidazol-5-yl)-[(2R,6R,11S)-6,11-dimethyl-8-pyridin-4-yl-1,2,5,6-tetrahydro-4H-2,6-methano-benzo[d]azocin-3-yl]-methanone] was tested, and the IC50 was 66 nM. `C[C@@H]1[C@H]2Cc3ccc(-c4cncnc4)cc3[C@]1(C)CCN2C(=O)c1ccc2nc[nH]c2c1` [Example 252, (3H-Benzoimidazol-5-yl)-[(2R,6R,11S)-6,11-dimethyl-8-pyrimidin-5-yl-1,2,5,6-tetrahydro-4H-2,6-methano-benzo[d]azocin-3-yl]-methanone] was tested, and the IC50 was 61 nM. `Cc1cnc2cc3c(cc2n1)C[C@H]1N(C(=O)c2ccc4nc[nH]c4c2)CC[C@]3(C)C1(C)C` [Example 254, (3H-Benzoimidazol-5-yl)-[(7R,11S)-6,7,8,9,10,11-hexahydro-3,11,13,13-tetramethyl-7,11-methano-pyrazino[2,3-i][3]benzazocin-8-yl]-methanone] showed an IC50 of 742 nM. `Cc1cnc2cc3c(cc2n1)[C@]1(C)CCN(C(=O)c2ccc4nc[nH]c4c2)[C@H](C3)C1(C)C` [Example 255, (3H-Benzoimidazol-5-yl)-[(7R,11S)-6,7,8,9,10,11-hexahydro-2,11,13,13-tetramethyl-7,11-methano-pyrazino[2,3-i][3]benzazocin-8-yl]-methanone] gave an IC50 of 742 nM. `Cn1cc(C(=O)N2CC[C@@]3(C)c4ccccc4C[C@@H]2C3(C)C)c2ccccc21` [Example 256, (1-Methyl-1H-indol-3-yl)-[(2R,6S)-6,11,11-trimethyl-1,2,5,6-tetrahydro-4H-2,6-methano-benzo[d]azocin-3-yl]-methanone] showed an IC50 of 222 nM. For `Cn1nnc2cc3c(cc21)[C@]1(C)CCN(C(=O)c2ccc4nc[nH]c4c2)[C@H](C3)C1(C)C` [Example 257, (3H-Benzoimidazol-5-yl)-[(6R,10S)-5,6,7,8,9,10-hexahydro-1,10,12,12-tetramethyl-6,10-methano-triazolo[5,4-i][3]benzazocin-7-yl]-methanone], the IC50 was 209 nM. For `Cn1nnc2cc3c(cc21)C[C@H]1N(C(=O)c2ccc4nc[nH]c4c2)CC[C@]3(C)C1(C)C` [Example 258, (3H-Benzoimidazol-5-yl)-[(6R,10S)-5,6,7,8,9,10-hexahydro-3,10,12,12-tetramethyl-6,10-methano-triazolo[4,5-i][3]benzazocin-7-yl]-methanone], the IC50 was 33 nM. For `CC1(C)[C@H]2Cc3ccccc3[C@]1(C)CCN2C(=O)c1c[nH]c2ccccc12` [Example 259, (1H-Indol-3-yl)-[(2R,6S)-6,11,11-trimethyl-1,2,5,6-tetrahydro-4H-2,6-methano-benzo[d]azocin-3-yl]-methanone], the IC50 was 115 nM. Work on `CC(O)(c1cccc(C(=O)N2CC[C@@]3(C)c4cccc(O)c4C[C@@H]2C3(C)C)c1)C(F)(F)F` (stereo partly drawn) [Example 260, [(2R,6S)-10-Hydroxy-6,11,11-trimethyl-1,2,5,6-tetrahydro-4H-2,6-methano-benzo[d]azocin-3-yl]-[3-(2,2,2-trifluoro-1-hydroxy-1-methyl-ethyl)-phenyl]-methanone] yielded an IC50 of 181 nM. `COc1ccc2c(c1[N+](=O)[O-])[C@]1(C)CCN(C(=O)c3ccc4nc[nH]c4c3)[C@H](C2)[C@H]1C` [Example 261, (3H-Benzoimidazol-5-yl)-[(2R,6R,11S)-8-methoxy-6,11-dimethyl-7-nitro-1,2,5,6-tetrahydro-4H-2,6-methano-benzo[d]azocin-3-yl]-methanone] gave an IC50 of 47 nM. In the case of `Cc1nccc(-c2ccc3c(c2)[C@]2(C)CCN(C(=O)c4ccc5nc[nH]c5c4)[C@H](C3)[C@H]2C)n1` [Example 262, (3H-Benzoimidazol-5-yl)-[(2R,6R,11S)-6,11-dimethyl-8-(2-methyl-pyrimidin-4-yl)-1,2,5,6-tetrahydro-4H-2,6-methano-benzo[d]azocin-3-yl]-methanone], the IC50 is reported as 73 nM. `Cc1ccc(-c2ccc3c(c2)[C@]2(C)CCN(C(=O)c4ccc5nc[nH]c5c4)[C@H](C3)[C@H]2C)nn1` [Example 263, (3H-Benzoimidazol-5-yl)-[(2R,6R,11S)-6,11-dimethyl-8-(6-methyl-pyridazin-3-yl)-1,2,5,6-tetrahydro-4H-2,6-methano-benzo[d]azocin-3-yl]-methanone] was tested, and the IC50 was 71 nM. In the case of `C[C@@H]1[C@H]2Cc3ccc(-c4ccncn4)cc3[C@]1(C)CCN2C(=O)c1ccc2nc[nH]c2c1` [Example 264, (3H-Benzoimidazol-5-yl)-[(2R,6R,11S)-6,11-dimethyl-8-pyrimidin-4-yl-1,2,5,6-tetrahydro-4H-2,6-methano-benzo[d]azocin-3-yl]-methanone], the IC50 is reported as 78 nM. `CC1(C)[C@H]2Cc3cc4nn[nH]c4cc3[C@]1(C)CCN2C(=O)c1ccc2nc[nH]c2c1` [Example 265, (3H-Benzoimidazol-5-yl)-[(6R,10S)-5,6,7,8,9,10-hexahydro-10,12,12-trimethyl-6,10-methano-1H-triazolo[5,4-i][3]benzazocin-7-yl]-methanone] showed an IC50 of 22 nM. Molecule `CC1(C)[C@H]2Cc3cc4nc(-c5cnccn5)[nH]c4cc3[C@]1(C)CCN2C(=O)c1ccc2nc[nH]c2c1` [Example 266, (3H-Benzoimidazol-5-yl)-[(6R,10S)-5,6,7,8,9,10-hexahydro-10,12,12-trimethyl-2-pyrazin-2-yl-6,10-methano-imidazo[5,4-i][3]benzazocin-7-yl]-methanone] has an IC50 of 42 nM. `COc1ccc2c(c1N)[C@]1(C)CCN(C(=O)c3ccc4nc[nH]c4c3)[C@H](C2)[C@H]1C` [Example 267, (3H-Benzoimidazol-5-yl)-[(2R,6R,11S)-7-amino-8-methoxy-6,11-dimethyl-1,2,5,6-tetrahydro-4H-2,6-methano-benzo[d]azocin-3-yl]-methanone] was tested, and the IC50 was 66 nM. For `COc1ccc2c(c1NS(C)(=O)=O)[C@]1(C)CCN(C(=O)c3ccc4nc[nH]c4c3)[C@H](C2)[C@H]1C` [Example 268, N-[(2R,6R,11S)-3-(3H-Benzoimidazole-5-carbonyl)-8-methoxy-6,11-dimethyl-1,2,3,4,5,6-hexahydro-2,6-methano-benzo[d]azocin-7-yl]-methanesulfonamide], the IC50 was 931 nM. Molecule `CC(=O)N1CCC(c2nc3cc4c(cc3[nH]2)[C@]2(C)CCN(C(=O)c3ccc5nc[nH]c5c3)[C@H](C4)C2(C)C)CC1` [Example 269, [(6R,10S)-2-(1-Acetyl-piperidin-4-yl)-5,6,7,8,9,10-hexahydro-10,12,12-trimethyl-6,10-methano-imidazo[5,4-i][3]benzazocin-7-yl]-(3H-benzoimidazol-5-yl)-methanone] has an IC50 of 63 nM. For `COc1ccc2c(c1-n1cccc1)[C@]1(C)CCN(C(=O)c3ccc4nc[nH]c4c3)[C@H](C2)[C@H]1C` [Example 270, (3H-Benzoimidazol-5-yl)-[(2R,6R,11S)-8-methoxy-6,11-dimethyl-7-pyrrol-1-yl-1,2,5,6-tetrahydro-4H-2,6-methano-benzo[d]azocin-3-yl)-methanone], the IC50 was 99 nM. Molecule `CC1(C)[C@H]2Cc3cc4nc(C5CC5)[nH]c4cc3[C@]1(C)CCN2C(=O)c1ccc2nc[nH]c2c1` [Example 271, (3H-Benzoimidazol-5-yl)-[(6R,10S)-2-cyclopropyl-5,6,7,8,9,10-hexahydro-10,12,12-trimethyl-6,10-methano-imidazo[5,4-i][3]benzazocin-7-yl]-methanone] has an IC50 of 50 nM.

Same assay, conditions: 1 hour at 37° C., pH 6.0, NADPH 200 μM, cortisone 80 nM, inhibition relative to carbenoxolone signal, read-out: 11β-HSD IC50
In the case of `O=C(c1ccc2nc[nH]c2c1)N1CCC2CC1Cc1c2[nH]c2ccccc12` (stereo not shown) [Example 245, (3H-Benzoimidazol-5-yl)-(2,3,4,5,6,7-hexahydro-2,6-methano-azocino[5,4-b]indol-3-yl)-methanone], the IC50 is reported as 257 nM.
